Consider 32 compounds from the NIST ThermoML archive (doi:10.1016/j.fluid.2014.06.021).

Numbers after ± are expanded uncertainties.

This series is described as follows: activity coefficient (dimensionless); of the first substance listed, at infinite dilution; xn = mol fraction of the nth substance listed. The settings on record: 101.33 kPa, Liquid, Chromatography, x1 = 0.

As to `CCc1ccccc1` [ethylbenzene] + C[n+]1ccn(CCCCS(=O)(=O)O)c1.O=S(=O)([O-])C(F)(F)F, the activity coefficient by setting is: (323.15 K) 10.8 ± 0.74; (333.15 K) 10.3 ± 0.7; (343.15 K) 10.3 ± 0.7.
As to `CCc1ccccc1` [ethylbenzene] + C[n+]1ccn(CCCCS(=O)(=O)O)c1.O=S(=O)([O-])O, the activity coefficient reads like this: (323.15 K) 62.7 ± 4.3; (333.15 K) 57.6 ± 3.9; (343.15 K) 54.5 ± 3.7.
On to `CO` [methanol] + C[n+]1ccn(CCCCS(=O)(=O)O)c1.O=S(=O)([N-]S(=O)(=O)C(F)(F)F)C(F)(F)F, for which the activity coefficient runs as follows: (323.15 K) 0.06; (333.15 K) 0.08 ± 0.03; (343.15 K) 0.09 ± 0.03.
`C[N+](=O)[O-]` [nitromethane] + C[n+]1ccn(CCCCS(=O)(=O)O)c1.O=S(=O)([N-]S(=O)(=O)C(F)(F)F)C(F)(F)F: the activity coefficient (323.15 K) was 0.6 ± 0.1, the activity coefficient (333.15 K) turned out to be 0.6 ± 0.1 and the activity coefficient (343.15 K) amounted to 0.6 ± 0.1.
Turning to `C[N+](=O)[O-]` [nitromethane] + C[n+]1ccn(CCCCS(=O)(=O)O)c1.O=S(=O)([O-])C(F)(F)F, the activity coefficient runs as follows: (323.15 K) 0.72 ± 0.05; (333.15 K) 0.71 ± 0.05; (343.15 K) 0.71 ± 0.05.
As for `C[N+](=O)[O-]` [nitromethane] + C[n+]1ccn(CCCCS(=O)(=O)O)c1.O=S(=O)([O-])O, the activity coefficient (323.15 K) is 1.58 ± 0.1, the activity coefficient (333.15 K) was 1.59 ± 0.11 and the activity coefficient (343.15 K) came to 1.6 ± 0.11.
With `CCCC(C)=O` [pentan-2-one] + C[n+]1ccn(CCCCS(=O)(=O)O)c1.O=S(=O)([N-]S(=O)(=O)C(F)(F)F)C(F)(F)F, the activity coefficient was 0.42 ± 0.04 (323.15 K), 0.52 ± 0.04 (333.15 K) and 0.64 ± 0.04 (343.15 K).
As to `CCCC(C)=O` [pentan-2-one] + C[n+]1ccn(CCCCS(=O)(=O)O)c1.O=S(=O)([O-])C(F)(F)F, the activity coefficient amounted to 2.11 ± 0.14 (323.15 K), 2.14 ± 0.15 (333.15 K) and 2.19 ± 0.15 (343.15 K).
On to `CCCC(C)=O` [pentan-2-one] + C[n+]1ccn(CCCCS(=O)(=O)O)c1.O=S(=O)([O-])O, for which the activity coefficient (323.15 K) turned out to be 13.4 ± 0.92, the activity coefficient (333.15 K) stood at 13.2 ± 0.9 and the activity coefficient (343.15 K) turned out to be 12.5 ± 0.85.
The matching figures for `CCC(=O)CC` [pentan-3-one] + C[n+]1ccn(CCCCS(=O)(=O)O)c1.O=S(=O)([N-]S(=O)(=O)C(F)(F)F)C(F)(F)F: 0.54 ± 0.04, 0.64 ± 0.04 and 0.77 ± 0.05.
Take `CCC(=O)CC` [pentan-3-one] + C[n+]1ccn(CCCCS(=O)(=O)O)c1.O=S(=O)([O-])C(F)(F)F: the activity coefficient stood at 2.31 ± 0.16 (323.15 K), 2.33 ± 0.16 (333.15 K) and 2.44 ± 0.17 (343.15 K).
Regarding `CCC(=O)CC` [pentan-3-one] + C[n+]1ccn(CCCCS(=O)(=O)O)c1.O=S(=O)([O-])O, the activity coefficient was 14.2 ± 0.97 (323.15 K), 13.8 ± 0.94 (333.15 K) and 13.2 ± 0.9 (343.15 K).
Turning to `CCCO` [propan-1-ol] + C[n+]1ccn(CCCCS(=O)(=O)O)c1.O=S(=O)([N-]S(=O)(=O)C(F)(F)F)C(F)(F)F, the activity coefficient is, setting by setting: (333.15 K) 0.13 ± 0.03; (343.15 K) 0.16 ± 0.03.
The matching figures for `CC(C)O` [propan-2-ol] + C[n+]1ccn(CCCCS(=O)(=O)O)c1.O=S(=O)([N-]S(=O)(=O)C(F)(F)F)C(F)(F)F: 0.09 ± 0.03 and 0.11 ± 0.03.
As for `ClC(Cl)(Cl)Cl` [tetrachloromethane] + C[n+]1ccn(CCCCS(=O)(=O)O)c1.O=S(=O)([N-]S(=O)(=O)C(F)(F)F)C(F)(F)F, the activity coefficient runs as follows: (323.15 K) 7.71 ± 0.53; (333.15 K) 7.99 ± 0.54; (343.15 K) 8.1 ± 0.6.
For the compound `ClC(Cl)(Cl)Cl` [tetrachloromethane] + C[n+]1ccn(CCCCS(=O)(=O)O)c1.O=S(=O)([O-])C(F)(F)F, the activity coefficient by setting is: (323.15 K) 12.4 ± 0.85; (333.15 K) 12.1 ± 0.83; (343.15 K) 11.4 ± 0.78.
Turning to `CCCCCCCCCCCCCC` [tetradecane] + C[n+]1ccn(CCCCS(=O)(=O)O)c1.O=S(=O)([N-]S(=O)(=O)C(F)(F)F)C(F)(F)F, the activity coefficient (323.15 K) turned out to be 1180 ± 81, the activity coefficient (333.15 K) came out at 1060 ± 73 and the activity coefficient (343.15 K) was found to be 941 ± 65.
For `CCCCCCCCCCCCCC` [tetradecane] + C[n+]1ccn(CCCCS(=O)(=O)O)c1.O=S(=O)([O-])O, in that order: 1910 ± 130, 1750 ± 120 and 1680 ± 120.
For `c1ccsc1` [thiophene] + C[n+]1ccn(CCCCS(=O)(=O)O)c1.O=S(=O)([N-]S(=O)(=O)C(F)(F)F)C(F)(F)F, in that order: 0.83 ± 0.05, 0.83 ± 0.05 and 0.82 ± 0.05.
The matching figures for `c1ccsc1` [thiophene] + C[n+]1ccn(CCCCS(=O)(=O)O)c1.O=S(=O)([O-])C(F)(F)F: 2.24 ± 0.15, 2.23 ± 0.15 and 2.22 ± 0.15.
Turning to `c1ccsc1` [thiophene] + C[n+]1ccn(CCCCS(=O)(=O)O)c1.O=S(=O)([O-])O, the activity coefficient runs as follows: (323.15 K) 6.56 ± 0.45; (333.15 K) 6.43 ± 0.44; (343.15 K) 6.13 ± 0.42.
For `Cc1ccccc1` [toluene] + C[n+]1ccn(CCCCS(=O)(=O)O)c1.O=S(=O)([N-]S(=O)(=O)C(F)(F)F)C(F)(F)F, in that order: 3.1 ± 0.2, 3.28 ± 0.22 and 3.31 ± 0.23.
The matching figures for `Cc1ccccc1` [toluene] + C[n+]1ccn(CCCCS(=O)(=O)O)c1.O=S(=O)([O-])C(F)(F)F: 5.74 ± 0.39, 5.54 ± 0.38 and 5.54 ± 0.38.
Regarding `Cc1ccccc1` [toluene] + C[n+]1ccn(CCCCS(=O)(=O)O)c1.O=S(=O)([O-])O, the activity coefficient is, setting by setting: (323.15 K) 28.3 ± 1.9; (333.15 K) 26.6 ± 1.8; (343.15 K) 24.9 ± 1.7.
For `ClC(Cl)Cl` [trichloromethane] + C[n+]1ccn(CCCCS(=O)(=O)O)c1.O=S(=O)([N-]S(=O)(=O)C(F)(F)F)C(F)(F)F, in that order: 1.81 ± 0.12, 1.83 ± 0.12 and 1.86 ± 0.13.
Regarding `ClC(Cl)Cl` [trichloromethane] + C[n+]1ccn(CCCCS(=O)(=O)O)c1.O=S(=O)([O-])C(F)(F)F, the activity coefficient was 2.12 ± 0.14 (323.15 K), 2.18 ± 0.15 (333.15 K) and 2.19 ± 0.15 (343.15 K).
For the compound `ClC(Cl)Cl` [trichloromethane] + C[n+]1ccn(CCCCS(=O)(=O)O)c1.O=S(=O)([O-])O, the activity coefficient by setting is: (323.15 K) 6.65 ± 0.45; (333.15 K) 6.73 ± 0.46; (343.15 K) 6.84 ± 0.47.
In the case of `CCCCCCCCCCCCC` [tridecane] + C[n+]1ccn(CCCCS(=O)(=O)O)c1.O=S(=O)([N-]S(=O)(=O)C(F)(F)F)C(F)(F)F, the activity coefficient is, setting by setting: (323.15 K) 1080 ± 75; (333.15 K) 911 ± 63; (343.15 K) 832 ± 57.
The matching figures for `CCCCCCCCCCCCC` [tridecane] + C[n+]1ccn(CCCCS(=O)(=O)O)c1.O=S(=O)([O-])C(F)(F)F: 1940 ± 130, 1550 ± 110 and 1220 ± 84.
With `CCCCCCCCCCCCC` [tridecane] + C[n+]1ccn(CCCCS(=O)(=O)O)c1.O=S(=O)([O-])O, the activity coefficient was determined as 1540 ± 110 (323.15 K), 1410 ± 97 (333.15 K) and 1350 ± 93 (343.15 K).
With `CCCCCCCCCCC` [undecane] + C[n+]1ccn(CCCCS(=O)(=O)O)c1.O=S(=O)([N-]S(=O)(=O)C(F)(F)F)C(F)(F)F, the activity coefficient by setting is: (323.15 K) 515 ± 35; (333.15 K) 448 ± 31; (343.15 K) 425 ± 29.
The matching figures for `CCCCCCCCCCC` [undecane] + C[n+]1ccn(CCCCS(=O)(=O)O)c1.O=S(=O)([O-])O: 1490 ± 100, 1370 ± 94 and 1310 ± 90.
